Data published in US20240408071A1, “NOVEL COMBINATION OF SEROTONIN RECEPTOR (5-HTR2B) ANTAGONIST AND AN IMMUNOMODULATOR AND CHEMOTHERAPEUTIC DRUGS FOR INHIBITION OF CANCER” (NATIONAL CENTRE FOR CELL SCIENCE, priority 2021, published 2024).
Entries after “also recorded” stand apart in the source; their conditions may differ.

Columns and labels:
MC38 colon cancer cells = test: MC38 colon tumor growth (tumor volume) in C57BL/6 mice; format: in vivo
Experimental: Tumor volumes were measured and plotted. (B) MC38 colon cancer cells were injected subcutaneously into the right flank of C57BL/6 mice. After seven days when tumors became palpable, one group was treated with 5-HTR7 antagonist SB-269970 (n=6 mice; 3 mg/kg/day) or left untreated (n=6 mice). Tumor volume was measured and plotted. (C) After seven days of the setting of tumor growth, one group was treated with a serotonin transporter blocker (SSRI) sertraline hydrochloride (n=6 mice; 15 mg/kg/week) or left untreated (n=6 mice). Tumor volume was measured and plotted. (D) C57BL/6 mice were given subcutaneously injected MC38 cells. After seven days of tumor growth, one group of mice was treated with different doses of 5-HTR2B antagonist SB-215505 (n=6). Tumor volume was measured and plotted. (E) C57BL/6 mice were given subcutaneously injected MC38 cells. After seven days of the tumor growth, one group of mice was treated with different doses of 5-HTR2B antagonist SB-215505 (n=6), one group treated with 5-HTR2B agonist BW-723C86 (n=6; 4 mg/kg/day). Tumor volume was measured and plotted. (F) MC38 cells were subcutaneously injected into C57BL/6 mice. After seven days when the tumor became palpable in mice, one group of mice was treated with FDA-approved 5-HTR2B antagonist cariprazine (Carispec; Sun pharma) via oral gavage (n=5 mice; dose 5 mg/kg body weight/day) or left untreated (n=5 mice). Tumor growth was measured and plotted. […] All the statistical analysis was performed using Student's ‘t’ test or two-way ANOVA using Sidak's multiple comparison test. *P<0.05; **P<0.01; ***P<0.00; ****P<0.0001 Error bar represents mean±standard error of means (SEM).

PD-L1 [1] = test: Serum PD-L1 ELISA in MC38 tumor-bearing mice; format: in vivo, C57BL/6J mice; settings: MC38 tumor-bearing mice, 5 mg/kg/day, 14 days after tumor inoculation (FIG. 13F)
Experimental: FIG. 13 depicts 5-HTR2B signaling promotes PD-L1 expression on the MC38 cell line in vitro: (A-B) MC38 cells are treated with 5-HTR2B agonist (BW-723C86-50 μM), serotonin (100 μM), and 5-HTR2B antagonist (RS-127445-50 μM) for 72 hours, and the PD-L1 expression was checked by flow cytometry and the percentage of PD-L1^+ MC38 cells was plotted. (C-D) MFI of PD-L1 from the above experiment were plotted as histogram overlay (C) or as statistical data points (D). (E) Relative PD-L1 mRNA expression in MC38 cells following BW-723C86 and RS-127445 treatment for 48 hours. Here the values are shown as a fold change as compared to control MC38 cells. […] All the statistical analysis was performed using either Student's ‘t’ test or two-way ANOVA using Sidak's multiple comparison test. *P<0.05; **P<0.01; […]; ****P<0.0001 Error bar represents mean±standard error of means (SEM).
Universal competitive serotonin ELISA kit was purchased from Novus biological (Catalog #NBP2-68127), and ELISA was performed according to the manufacturer's protocol. Mouse PD-L1 DuoSet ELISA kit was procured from the R&D System (Catalog #DY1019-05), and the ELISA was performed according to the manufacturer's guidelines.
(§1) To understand it, investigations were done on whether 5-HTR2B signaling also affects the surface expression of molecules that alters inflammatory and cytotoxic immune cells. Among different molecules, PD-L1 is of particular interest as it is an immune checkpoint ligand that affects cytotoxic T-cell responses toward cancer. […] (FIG. 13F).

PD-L1 [2] = test: PD-L1 expression on MC38 cells in vitro (flow cytometry, mRNA); format: cell-based, mouse; settings: BW-723C86 50 μM, serotonin 100 μM, RS-127445 50 μM, 72 hours (mRNA 48 hours) (FIG. 13A-E)
Experimental: FIG. 13 depicts 5-HTR2B signaling promotes PD-L1 expression on the MC38 cell line in vitro: (A-B) MC38 cells are treated with 5-HTR2B agonist (BW-723C86-50 μM), serotonin (100 μM), and 5-HTR2B antagonist (RS-127445-50 μM) for 72 hours, and the PD-L1 expression was checked by flow cytometry and the percentage of PD-L1^+ MC38 cells was plotted. (C-D) MFI of PD-L1 from the above experiment were plotted as histogram overlay (C) or as statistical data points (D). (E) Relative PD-L1 mRNA expression in MC38 cells following BW-723C86 and RS-127445 treatment for 48 hours. Here the values are shown as a fold change as compared to control MC38 cells. (F) Serum PD-L1 level was measured by ELISA of naïve C57BL/6J mice, control MC38 tumor-bearing mice, BW-723C86 (5 mg/kg/day) treated MC38 tumor-bearing mice and RS-127445 (5 mg/kg/day) treated MC38 tumor-bearing mice after 14 days of tumor inoculation. All the statistical analysis was performed using either Student's ‘t’ test or two-way ANOVA using Sidak's multiple comparison test. *P<0.05; **P<0.01; […]; ****P<0.0001 Error bar represents mean±standard error of means (SEM).
as §1

| SMILES | MC38 tumor growth (MC38 colon cancer cells; 5-HTR2B agonist 4 mg/kg/day (FIG. 7E)) | circulating free PD-L1 in the serum (PD-L1 [1]) | expression of PD-L1 in the colon cancer cells (PD-L1 [2]) | MC38 tumor growth (MC38 colon cancer cells; 4 mg/kg/day from day 7 after inoculation, vs untreated (FIG. 7A)) | effect in controlling tumor growth compared to SB-215505 (MC38 colon cancer cells; MC38 tumor, equivalent dose) | tumor growth, combination with 5-Fluorouracil (MC38 colon cancer cells; RS-127445 2 mg/kg/day + 5-Fluorouracil 10 mg/kg/alternate days, MC38 model (FIG. 16B)) | efficacy of combination with Irinotecan (MC38 colon cancer cells; RS-127445 2 mg/kg/day + Irinotecan 15 mg/kg/day for 5 days, subcutaneous colon cancer model (FIG. 16D)) | efficacy of combination with Oxaliplatin (MC38 colon cancer cells; RS-127445 2 mg/kg/day + Oxaliplatin 4 mg/kg/day for 5 days, subcutaneous colon cancer model (FIG. 16C)) | efficacy of combination with trifluorothymidine (MC38 colon cancer cells; RS-127445 2 mg/kg/day + trifluorothymidine 20 mg/kg/day (FIG. 16E)) |
| --- | --- | --- | --- | --- | --- | --- | --- | --- | --- |
| CC(N)Cc1c[nH]c2ccc(OCc3cccs3)cc12 (centres unmarked) [BW-723C86] | significantly promotes MC38 tumor growth | increased the circulating free PD-L1 in the serum | increased the expression of PD-L1 | – | – | – | – | – | – |
| CC(C)c1cc(-c2ccc(F)c3ccccc23)nc(N)n1 [RS-127445] | – | diminished | reduced the expression of PD-L1 | efficiently control the tumor growth; also recorded: potent molecule in reducing the tumor burden | even more potent effect in controlling tumor growth | much better response by reducing tumor growth than any of them alone | significantly enhanced the efficacy of irinotecan or RS-127445 alone | significantly enhanced the efficacy of oxaliplatin or RS-127445 alone | not found any significant alterations in the efficacy |
